Reference: patent publication US6514538B1, “External preparations for skin whitening” (Shiseido Company, Ltd., priority 1999, dated 2003)

System: skin of an inner lateral part of the upper arm of testees exposed to summer sunlight
Experiment: Whitening effect testing (lotion on sun-exposed skin of testees)
Format: in vivo, human
Conditions: blend ratio 1.0 wt %, applied twice a day for 4 weeks
Experimental: 66 testees were exposed to summer sunlight for 4 hours (2 hours a day for 2 days) and the skin of an inner lateral part of their upper arm was used as the subject of the test. […] The panel was divided into 11 groups with 6 persons in each group. Testing was conducted using lotion with the following formulas. [table] The water phase and the alcohol phase were prepared separately and then solubilized. The hypochromic effect after the application was evaluated based on the criteria below. ⊚: Very effective or effective on 80% or more of the testees ◯: Very effective or effective on 50% to less than 80% of the testees Δ: Very effective or effective on 30% to less than 50% testees ×: Very effective or effective on less than 30% of the testees Samples were prepared with the blend compositions described in the aforementioned test method, and the drugs listed in Table 2 were used to compare the whitening effect.

Structure (SMILES): Oc1ccc(O)cc1 [Hydroquinone]
- Effect (hypochromic effect after the application): Δ (Very effective or effective on 30% to less than 50% testees)
